Assay results reported in patent US7026292B1, “Compositions and therapeutic methods using morphogenic proteins and stimulatory factors” (Stryker Corporation, priority 1995, dated 2006).

Tested on: FRC (fetal rat calvarial) cells
Experiment: Alkaline phosphatase (AP) activity assay in FRC cells
Format: cell-based
Conditions: for MPSF function in concert with OP-1 (figure title): OP-1 200 ng/ml (FIGS. 5–10); for Stimulation of OP-1 osteogenic induction (figure title): OP-1 500 ng/ml (FIG. 1, FIG. 11)
Description: A preferred assay for testing potential MPSFs with OP-1 for osteogenic activity is the alkaline phosphatase (AP) enzymatic assay. AP is an osteoblast differentiation marker in primary osteoblastic FRC. (fetal rat calvarial) cells. The OP-1-stimulated AP activity is the result of increased steady-state AP mRNA levels as measured by Northern analysis. The procedure is generally as follows.
Primary osteoblast cell cultures were prepared from fetal rat calvaria using published procedures (M. A. Aronow et al., J. Cell Physiol., 143, pp. 213–221 (1990); T. K. McCarthy et al., J. Bone Miner. Res., 3, pp. 401–8 (1988)). Briefly, cells were harvested by sequential collagenase digestions of the calvarium and cells from digestions III to V were pooled. Fetal rat calvaria (FRC) cells were plated in complete medium (MEM, alpha; GIBCO/BRL, Grand Island, N.Y.) containing 10% fetal bovine serum, vitamin C (100 μg/ml), and antibiotics (100 U/ml penicillin, and […]). Cultures were incubated at 37° C. with 95% air/5% CO2 for several days to reach confluence. Cells were then subcultured for experimentations.
FRC cells were subcultured in 48-well plates (COSTAR, Cambridge, Mass.) in complete MEM medium with 10% fetal bovine serum until confluent in about 4 days. Confluent cells were rinsed with Hank's balanced salt solution (HBSS) and treated with serum-free α-MEM medium (with 0.1% BSA, 100 U/ml penicillin, and […]) containing the appropriate solvent vehicle (50% acetonitrile/0.1% trifluoroacetic acid for OP-1 treatment or 0.1N acetic acid for IGFI treatment) or recombinant human OP-1, or IGFI at the concentrations indicated. Solvent vehicle concentration in the culture medium never exceeded 0.1%. At the end of treatment, cells were lysed and total cellular alkaline phosphatase activity was measured (typically after 48 hours of treatment).
Total cellular alkaline phosphatase activity was determined using a commercial assay kit (Sigma, St. Louis, Mo.). Cell lysates were prepared by aspirating the medium from the 48-well plate, rinsing the cells with ice-cold PBS, and lysing the cells with 0.05% Triton X-100 and sonication for 60 sec. Alkaline phosphatase activity in the lysates was measured in 2-amino-2-methyl-1-propanol buffer (pH 10.3) with p-nitrophenyl phosphate as substrate at 37° C. Reactions were performed in 96-well plates for 1–2 h. Following color development, reactions were terminated with 0.5N NaOH. Absorbance of the reaction was measured at 405 nm using a Hewlett Packard Genenchem automatic plate reader. Total protein level in the lysates was measured according to Bradford (M. Bradford, Anal. Biochem., 72, pp. 248–54 (1976)) using bovine serum albumin as a standard. Alkaline phosphatase activity was expressed as nmol p-nitrophenol liberated per microgram of total cellular protein. […]
At least four experimental groups were tested: control cells treated with no OP-1 or MPSF; group I cells treated with increasing concentrations of MPSF alone; […]; and group III cells, […] concentrations of the MPSF.

[1] = 0.5 nM HC + 200 ng/ml OP-1, 48 hours (FIG. 7)
[2] = PG 5 nM + 200 ng/ml OP-1, 48 hours (FIG. 10)
[3] = IGF-I + OP-1 500 ng/ml (FIG. 1)
[4] = 0.05 nM or 0.5 nM insulin + 200 ng/ml OP-1, 48 hours (FIG. 8)

Question: What does the source list for C[C@]12CCC(=O)C=C1CC[C@@H]1[C@@H]2[C@@H](O)C[C@@]2(C)[C@H]1CC[C@]2(O)C(=O)CO [HC, hydrocortisone, reference compound]?
Answer: Level of AP activity relative to cells treated with OP-1 alone [1]: about two-fold; Level of AP activity relative to control cells [1]: about three-fold; MPSF function in concert with OP-1 (figure title) (AP activity in FRC cells): is a MPSF in concert with OP-1; Stimulation of AP activity by HC alone (HC 0.05–5 nM alone, 48 hours (FIG. 7)): did not stimulate AP activity

Question: With CC(=O)[C@H]1CC[C@H]2[C@@H]3CCC4=CC(=O)CC[C@]4(C)[C@H]3CC[C@]12C [PG, progesterone, reference compound] as the compound, how does the “MPSF function in concert with OP-1 (figure title)” value (AP activity in FRC cells) read?
Answer: is a MPSF in concert with OP-1

Question: And the “Level of AP activity relative to cells treated with OP-1 alone” value [2]?
Answer: about two-fold

Question: What about the “Level of AP activity relative to control cells” value [2] of the same compound?
Answer: about four-fold

Question: What about the “Stimulation of AP activity beyond control cells” value (PG alone 5 nM, 48 hours (FIG. 10)) of the same compound?
Answer: about three-fold

Question: For “IGF-I: insulin-like growth factor I, tested as morphogenic protein stimulatory factor (MPSF)”, which “Stimulation of OP-1 osteogenic induction (figure title)” value (AP activity in FRC cells) is on record?
Answer: stimulates OP-1 osteogenic induction

Question: And the “Potentiation of OP-1-stimulated AP activity by IGF-I” value (IGF-I 10 ng/ml, OP-1 100 ng/ml (FIG. 3))?
Answer: 1.5–2 fold

Question: What about the “Synergistic effect on AP level, timing of IGF-I addition” value (“Synergistic effect on AP level, timing” below) (IGF-I 25 ng/ml added 6 h or later after OP-1 500 ng/ml, 48 h (FIG. 4)) of the same compound?
Answer: reduced significantly

Question: And the “Maximum enhancement of OP-1-stimulated AP activity by IGF-I” value (IGF-I 25 ng/ml, OP-1 200 ng/ml (FIG. 3))?
Answer: about 2.5 fold

Question: And the “Stimulation of AP activity by IGF-I in the absence of OP-1” value (IGF-I 1–100 ng/ml, no OP-1 (FIG. 3))?
Answer: did not stimulate AP activity

Question: What about the “Enhancement of OP-1-stimulated AP activity by IGF-I” value [3] of the same compound?
Answer: 3–4 fold

Question: And the “Kind of stimulatory effect of IGF-I on OP-1-stimulated AP activity” value [3]?
Answer: synergistic

Question: And the “Potentiation of OP-1-stimulated AP activity at higher IGF-I concentrations” value (IGF-I above 25 ng/ml (up to 100 ng/ml) with OP-1 (FIG. 3))?
Answer: no longer potentiates

Question: And the “Synergistic effect on AP level, timing” value (OP-1 500 ng/ml and IGF-I 25 ng/ml added simultaneously, 48 h (FIG. 4))?
Answer: maximum synergistic effect

Question: What about the “Stimulation of AP activity by IGF-I alone” value (exogenous IGF-I alone up to 300 ng/ml, no OP-1 (FIG. 1)) of the same compound?
Answer: did not stimulate AP activity

Question: What about the “Synergistic effect on AP level, timing” value (pre-incubation with IGF-I 25 ng/ml for 24 h followed by OP-1 500 ng/ml) of the same compound?
Answer: abolishes the synergistic effect

Question: What does the source list for “IGF-II: member of the IGF growth factor family”?
Answer: Stimulation of OP-1 osteogenic induction (figure title) (AP activity in FRC cells): does not stimulate OP-1-induced osteogenic induction; Effect of IGF-II on OP-1-stimulated increase in AP activity (IGF-II 10–300 ng/ml + OP-1 500 ng/ml (FIG. 11)): neither enhanced nor inhibited; Effect of IGF-II on the synergistic effect of IGF-I on OP-1 (IGF-II (925 ng/ml as printed) + IGF-I 25 ng/ml + OP-1 500 ng/ml): does not further potentiate

Question: How did the “Stimulation of OP-1-induced osteogenic induction (figure title)” value (AP activity in FRC cells, OP-1 100, 200 or 500 ng/ml (FIG. 12)) turn out when TGF-β was run?
Answer: does not stimulate OP-1-induced osteogenic induction

Question: What about the “Synergistic effect of TGF-β with OP-1 on AP activity” value (TGF-β 0.05–3.0 ng/ml with OP-1 (FIG. 12)) of the same compound?
Answer: did not exhibit any synergistic effect

Question: And the “Stimulation of AP activity by TGF-β alone” value (TGF-β alone, no OP-1 (FIG. 12))?
Answer: did not stimulate AP activity

Question: Which “MPSF function in concert with OP-1 (figure title)” value (AP activity in FRC cells) does the source give for “hGH: growth hormone (hGH), purchased from Sigma” here?
Answer: is a MPSF in concert with OP-1

Question: What about the “Induction of AP activity over OP-1 alone” value (all hGH concentrations tested (10–1000 ng/ml) + 200 ng/ml OP-1, 48 hours (FIG. 6)) of the same compound?
Answer: stimulated the induction of AP activity

Question: What about the “Concentration dependence of hGH stimulation of AP activity” value (higher versus lower hGH concentrations + 200 ng/ml OP-1, 48 hours (FIG. 6)) of the same compound?
Answer: more of a stimulatory effect

Question: What does the source list for insulin: insulin, purchased from Sigma?
Answer: Level of AP activity relative to cells treated with OP-1 alone [4]: about two-fold; Level of AP activity relative to control cells [4]: about four-fold; MPSF function in concert with OP-1 (figure title) (AP activity in FRC cells): is a MPSF in concert with OP-1; Stimulation of AP activity by insulin alone (insulin 0.05–5 nM alone, 48 hours (FIG. 8)): did not stimulate AP activity
